Like-named read-outs stand apart in the source and are kept apart here.
Columns and labels:
Assay in all cases: MIC (Minimum Inhibitory Concentration)
Format in all cases: cell-based
Candida albicans = test system: Candida albicans
Fusarium (bulb) = Fusarium (bulb) A 3252
Fusarium (tulip) = Fusarium (tulip) A 3253
Fusarium solani = settings: Fusarium solani, read-out: MIC values
Pasteurella multocida = settings: read-out: MIC values
Rhizoctonia solani = settings: Rhizoctonia solani, read-out: MIC values
[1] = test system: Streptococcus haemolyticus; settings: read-out: MIC values
Trichophyton equinum = test system: Trichophyton equinum
[2] = test system: Trichophyton mentagrophytus
Trichophyton quickeaneum = settings: read-out: MIC values
Trichophyton rubrum = test system: Trichophyton rubrum
[3] = test system: Trichophyton schoenleinii; settings: read-out: MIC values
[4] = test system: Trichophyton soudanese joyeux; settings: read-out: MIC values
Trichophyton tonsurans = settings: read-out: MIC values
Trichophyton verrucosum = test system: Trichophyton verrucosum
Trichophyton violoceum = settings: read-out: MIC values

Measured: MIC

[C-]#[N+]C(=C1CCCC1)S(=O)(=O)c1ccc(C)cc1 [Example 9, a-cyclopentylidene-a-(4-toluenesulphonyl)-methylisocyanide]
6 µg/mL: Candida albicans; read-out: MIC values, Candida albicans A 3166 | Candida albicans; read-out: MIC values, Candida albicans A 3168 | [2]; read-out: MIC values, Trichophyton mentagrophytus 421-67 | [4]; Trichophyton | Trichophyton tonsurans; Trichophyton tonsurans
0.8 µg/mL: Candida albicans; read-out: MIC values, Candida albicans A 7 | Candida albicans; read-out: MIC values, Candida albicans A 3143 | Candida albicans; read-out: MIC values, Candida albicans A 3191 | Candida albicans; read-out: MIC values, Candida albicans A 3192 | Candida albicans; read-out: MIC values, Candida albicans A 3194 | [2]; read-out: MIC values, Trichophyton mentagrophytus RRL 305 | Trichophyton rubrum; read-out: MIC values, Trichophyton rubrum 218-65
3 µg/mL: Candida albicans; read-out: MIC values, Candida albicans A 3141 | Candida albicans; read-out: MIC values, Candida albicans A 3165 | Candida albicans; read-out: MIC values, Candida albicans A 3167 | Candida albicans; read-out: MIC values, Candida albicans A 3169 | Candida albicans; read-out: MIC values, Candida albicans A 3171 | Candida albicans; read-out: MIC values, Candida albicans A 3196 | Pasteurella multocida; Pasteurella multocida | Trichophyton equinum; read-out: MIC values, Trichophyton equinum 182-76 | [2]; read-out: MIC values, Trichophyton mentagrophytus 367-68 | [2]; read-out: MIC values, Trichophyton mentagrophytus R 177
0.1 µg/mL: Trichophyton equinum; read-out: MIC values, Trichophyton equinum 441-51 | Trichophyton rubrum; read-out: MIC values, Trichophyton rubrum A 810
< 0.05 µg/mL: Trichophyton equinum; read-out: MIC values, Trichophyton equinum 856-71 | Trichophyton verrucosum; read-out: MIC values, Trichophyton verrucosum 134-66
0.4 µg/mL: [3]; Trichophyton schoenleinii | Trichophyton verrucosum; read-out: MIC values, Trichophyton verrucosum A 2922 | Trichophyton violoceum; Trichophyton
12.5 µg/mL: Fusarium (tulip) | Fusarium solani | [2]; read-out: MIC values, Trichophyton mentagrophytus R 178
25 µg/mL: Fusarium (bulb) | [1]; Streptococcus
1.5 µg/mL: Candida albicans; read-out: MIC values, Candida albicans A 3140 | Candida albicans; read-out: MIC values, Candida albicans A 3142 | Candida albicans; read-out: MIC values, Candida albicans A 3144 | Candida albicans; read-out: MIC values, Candida albicans A 3145 | Candida albicans; read-out: MIC values, Candida albicans A 3184 | Candida albicans; read-out: MIC values, Candida albicans A 3190 | Rhizoctonia solani | [2]; read-out: MIC values, Trichophyton mentagrophytus A 3252 | Trichophyton quickeaneum; Trichophyton | Trichophyton rubrum; read-out: MIC values, Trichophyton rubrum 494-62

[C-]#[N+]C(=Cc1ccc(Cl)cc1)S(=O)(=O)c1ccc(C)cc1 [Example 11, 1-isocyanv-2-(4-chlorophenyl)-1-(4-toluenesulphonyl)-ethene]
0.8 µg/mL: Candida albicans; Candida albicans A 7, read-out: MIC values | Candida albicans; Candida albicans A 3141, read-out: MIC values | Candida albicans; Candida albicans A 3168, read-out: MIC values | Trichophyton rubrum; Trichophyton rubrum A 810, read-out: MIC values
1.5 µg/mL: Candida albicans; Candida albicans A 3142, read-out: MIC values | Candida albicans; Candida albicans A 3143, read-out: MIC values | Candida albicans; Candida albicans A 3144, read-out: MIC values | Candida albicans; Candida albicans A 3145, read-out: MIC values | Candida albicans; Candida albicans A 3165, read-out: MIC values | Candida albicans; Candida albicans A 3166, read-out: MIC values | Candida albicans; Candida albicans A 3167, read-out: MIC values | Candida albicans; Candida albicans A 3169, read-out: MIC values | Candida albicans; Candida albicans A 3171, read-out: MIC values | Candida albicans; Candida albicans A 3184, read-out: MIC values | Candida albicans; Candida albicans A 3190, read-out: MIC values | Candida albicans; Candida albicans A 3191, read-out: MIC values | Candida albicans; Candida albicans A 3192, read-out: MIC values | Candida albicans; Candida albicans A 3194, read-out: MIC values | [2]; Trichophyton mentagrophytus 367-68, read-out: MIC values | [2]; Trichophyton mentagrophytus A 3252, read-out: MIC values | [2]; Trichophyton mentagrophytus RRL 305, read-out: MIC values | Trichophyton quickeaneum; Trichophyton quickeaneum A 2040 | Trichophyton rubrum; Trichophyton rubrum 218-65, read-out: MIC values | Trichophyton rubrum; Trichophyton rubrum 494-62, read-out: MIC values
6 µg/mL: Pasteurella multocida; Pasteurella multocida A 723 | [2]; Trichophyton mentagrophytus 421-67, read-out: MIC values | [4]; Trichophyton soudanese joyeux 440-63 | Trichophyton tonsurans; Trichophyton tonsurans 561-50
3 µg/mL: Candida albicans; Candida albicans A 3196, read-out: MIC values | [1]; Streptococcus haemolyticus A 1088 | Trichophyton equinum; Trichophyton equinum 182-76, read-out: MIC values | [2]; Trichophyton mentagrophytus R 177, read-out: MIC values
0.4 µg/mL: Candida albicans; Candida albicans A 3140, read-out: MIC values | Trichophyton equinum; Trichophyton equinum 441-51, read-out: MIC values | [3]; Trichophyton schoenleinii 435-63 | Trichophyton verrucosum; Trichophyton verrucosum A 2922, read-out: MIC values
0.1 µg/mL: Trichophyton violoceum; Trichophyton violoceum 442-62
< 0.05 µg/mL: Trichophyton equinum; Trichophyton equinum 856-71, read-out: MIC values | Trichophyton verrucosum; Trichophyton verrucosum 134-66, read-out: MIC values
> 100 µg/mL: [2]; Trichophyton mentagrophytus R 178, read-out: MIC values

Source: patent EP0007672A1, “Isocyanoalkenes, process and useful intermediates for their preparation, pharmaceutical and fungicidal preparations containing those isocyanoalkenes and the use of the fungicidal preparations in agriculture” (GIST-BROCADES N.V., priority 1978, dated 1980)
